Measurements taken from patent US20090137527A1, “Compositions and methods for modulating immune function” (Resolvyx Pharmaceuticals, Inc., priority 2007, published 2009).
“Also recorded” adds a separate entry of the source.

Experiments:
[1] = system: lymph node cells from collagen-induced arthritis rats; experiment: Ex vivo cytokine production in lymph node cells from CIA rats treated with compound; parameters: species or system rat
Description: (§1) Female Lewis rats were anesthetized with 3-5% isoflurane and arthritis was induced by intradermal injection of 0.3 mL (100 μL at three different sites) of an emulsion […] 1.5 mg/mL of type II bovine collagen, CII (Elastin Products Inc., Cat# CM276), in incomplete Freund's adjuvant (IFA) at the base of the tail on day 0 and 6. Control rats were injected with an equal amount of IFA only.
(§2) were measured under two different treatment regimens. In the first (prophylactic) treatment regimen, Compound X was administered i.v., twice daily, at 0.3 mg/kg from day 0 to day 6 or 10. For ex vivo studies, animals were euthanized on day 6 after the last injection and their inguinal lymph nodes were harvested. […] For ex vivo studies, animals were euthanized on day 16 and inguinal lymph nodes were harvested. Venous blood samples were collected during the course of treatment. For CD3 activation, 96-well flat bottom plates were coated with anti-CD3 mAb (eBioscience, clone G4.18) 1 μg/mL. Plates were stored overnight at 4° C., and were subsequently rinsed with PBS once before use. Bovine Type II collagen for tissue culture was purchased from Chondrex (Cat# 2022) and was reconstituted according to the manufacturer's instructions. All data were processed and analyzed by t-test using GraphPad Prism software.
Treatment regimen one was used (n=3). Animals were treated with Compound X from day 0 to day 6, were sacrificed on day 6, and freshly harvested lymph nodes were pressed through a nylon strainer (BD Falcon Cat# 352340) to obtain a single cell suspension. Cells were washed and resuspended in RPMI 1640/10% FCS at 4×10^6/mL. In U-bottom 96-well plates, 100 μL or 4×10^5 cells and 100 μL of collagen at 25 or 50 μg/mL final concentrations were added. Plates were incubated in a 37° C., 5% CO2 incubator overnight. Supernatants were harvested, and rat cytokines were measured with Bioplex (BioRad).
In FIG. 2A, animals were given compound X from Day 0 to Day 6 (treatment regimen one). In FIG. 2B, animals were given compound X from day 8 to day 16 (treatment regimen two).
In FIG. 3A, animals were given compound X from Day 0 to Day 6 (treatment regimen one). In FIG. 3B, animals were given compound X from day 8 to day 16 (treatment regimen two). Freshly harvested lymph nodes were pressed through a nylon strainer (BD Falcon Cat# 352340) to obtain a single cell suspension. Cells were washed and resuspended in RPMI 1640/10% FCS at 4×10^6/mL. To anti-CD3 coated plates were added 4×10^5 cells per well and 100 μL RPMI 1640/10% FCS media. The plates were incubated in a 37° C., 5% CO2 incubator for three days (FIG. 3A) or overnight (FIG. 3B). Rat IL-17 was measured with a kit from Millipore (Cat# RCYTO-18K-01) following the manufacturer's instructions.

[2] = system: whole blood from CIA rats; experiment: Ex vivo LPS-stimulated cytokines in whole blood from CIA rats; parameters: species or system rat; settings: 0.3 mg/kg i.v. twice daily (day 20 sample: 1 mg/kg orally twice daily) from day 8; 10 ng/mL LPS, 4 hours
Description: as §1
as §2, with “Bovine Type II collagen for tissue culture was purchased from Chondrex (Cat# 2022) and was reconstituted according to the manufacturer's instructions.” left out
To measure the effect of Compound X on blood cells, rat whole blood samples were taken on day 8, 10, 13, 16 and 20 (n=3-6). […] After 4 hours in culture, supernatants were collected and cytokine levels measured by Bioplex.

rats with CIA = experiment: Rat collagen-induced arthritis (CIA): paw swelling and knee histopathology; format: in vivo
Description: as §1
The volume of both hind paws were measured using a water displacement plethysmometer (Ugo Basile, Biological Research Apparatus, Italy), and the onset of arthritis was indicated by increased paw volume, which appeared approximately on day 11 post injection. Both paw volumes and body weights were measured throughout the study every 2-3 days. Nineteen to twenty-one days after CII injection, the rats were euthanized with CO2. Blood was collected by cardiac puncture and serum was saved.
as §2
After the animals were euthanized, both hind paws and knees were removed, hind paws were weighed, and the paws and knees were placed in formalin. Following 1-2 days in fixative and 4-5 days in decalcifier, the ankle joints were cut in half longitudinally, and the knees were cut in half in the frontal plane. The joints were then processed, embedded, sectioned and stained with toluidine blue. Collagen arthritic ankles and knees were given scores of 0-5 for inflammation, pannus formation and bone resorption according to the following criteria:
1 Minimal infiltration of inflammatory cells in periarticular tissue 2 Mild infiltration 3 Moderate infiltration with moderate edema 4 Marked infiltration with marked edema 5 Severe infiltration with severe edema […]

[3] = two treatment regimens: day 0 to day 6, or day 8 to day 16, 0.3 mg/kg i.v. twice daily
[4] = therapeutic, twice daily i.v. 0.3 mg/kg, days 8 to 19

CC[C@@H](O)/C=C/C=C\C[C@@H](O)/C=C/C=C/C=C\[C@@H](O)CCCC(=O)O [Compound X]
ex vivo IFN-γ and TNFα production in lymph node cells ([1]; 0.3 mg/kg i.v. twice daily day 0 to day 6, collagen 25 or 50 μg/mL overnight): inhibited | reduction of collagen- or CD3-induced IFNγ, TNFα and IL-17 secretion from draining lymph node cells ([1]; treated animals compared to controls): 60-90% | ex vivo anti-CD3 mAb-induced IL-17 production in lymph node cells [1, 3]: inhibited | ex vivo collagen-induced IFN-γ production in lymph node cells [1, 3]: inhibited | ex vivo LPS-stimulated cytokine production in whole blood [2]: inhibited; also recorded: significantly lower | paw swelling (as measured by ankle diameter) (rats with CIA; prophylactic, twice daily i.v. 0.3 mg/kg, days 0 to 10): significant reduction | bone resorption and joint damage (rats with CIA; therapeutic dosing): protected | knee histopathology scores: inflammation, pannus, cartilage damage, bone resorption (rats with CIA; [4]): significant reduction | mean ankle joint volume (rats with CIA; [4]): significant reduction
